In patent US12331052B2, “Organic compounds” (INTRA-CELLULAR THERAPIES, INC., priority 2018, dated 2025):
“And” between values parts separate entries of the source, which are not always exact repeats. Equal entries are not always repeated. Where two headings read alike, the source gives them in different places.

What was measured:
mice = experiment: Mouse marble-burying study (OCD model); format: in vivo; conditions: 0.3 mg/kg orally 30 minutes prior, of 15 marbles
Source text: The marble burying test is used to measure repetitive and anxiety-related behavior in rodents. It is based on the observation that rats and mice will bury either harmful or harmless objects in their bedding, and it has been used as an animal model to measure the effect of pharmacological interventions in treatment of repetitive behavior disorders, such as OCD.
MPEP is a selective mGluR5 glutamate receptor antagonist. […] Mice in groups (1) are orally administered the vehicle, and mice in group (4) are given an intraperitoneal injection of MPEP just prior to the start of the test.
The test is conducted in rectangular cages with 4-5 cm of wood chip bedding in a room with the window shades lowered and the door closed to minimize distractions. Fifteen clean marbles are evenly spaced on top of the bedding in three rows of five marbles. One mouse is placed in each cage. The mouse in the cage is left undisturbed for 30 minutes. At the end of the test, the mouse is removed and the number of marbles buried to at least ⅔ of their depth is counted.

rats [1] = conditions: for Motility Ratio: 30 minutes prior to charcoal bolus
[2] = test system: NR2B phosphorylation at Tyr1472; experiment: CNS phosphoprotein profile, nucleus accumbens: NR2B; format: in vivo, mice; conditions: 3 mg/kg; at 30-60 minutes
Description: (§1) A comprehensive molecular phosphorylation study is also carried out to examine the central nervous system (CNS) profile of the compound of Example 1. The extent of protein phosphorylation for selected key central nervous system proteins is measured in mice nucleus accumbens.
(§2) Mice were killed 30 minutes to 2 hours post-injection by focused microwave cranial irradiation, which preserves brain phosphoprotein as it exists at the time of death. Nucleus accumbens was then dissected from each mouse brain, sliced and frozen in liquid nitrogen. Samples were further prepared for phosphoprotein analysis via SDS-PAGE electrophoresis followed by phosphoprotein-specific immunoblotting, as described in Zhu H, et al., Brain Res. 2010 Jun. 25; 1342:11-23. Phosphorylation at each site was quantified, normalized to total levels of the protein (non-phosphorylated), and expressed as percent of the level of phosphorylation in vehicle-treated control mice.

[3] = test system: tyrosine hydroxylase phosphorylation at Ser40; experiment: CNS phosphoprotein profile, nucleus accumbens: TH; format: in vivo, mice; conditions: for increase in TH phosphorylation: mice nucleus accumbens, haloperidol 2 mg/kg, relative to vehicle-treated control
Description: as §1, §2

male Sprague-Dawley rats = experiment: Rat tolerance/dependence study (28 day)
C57 mice = conditions: mouse, in vivo
[4] = male, Sprague-Dawley, rat, in vivo, sc, 0.3 mg/kg
rats [5] = experiment: Pulmonary function in rats; format: in vivo; conditions: for RR: 60 minutes
[6] = rat, in vivo
D1 = D1 (Homo sapiens, UniProt P21728); experiment: Receptor binding, D1; conditions: @ 100 nM; read-out: maximum inhibition
D1, sequence (P21728 whole entry): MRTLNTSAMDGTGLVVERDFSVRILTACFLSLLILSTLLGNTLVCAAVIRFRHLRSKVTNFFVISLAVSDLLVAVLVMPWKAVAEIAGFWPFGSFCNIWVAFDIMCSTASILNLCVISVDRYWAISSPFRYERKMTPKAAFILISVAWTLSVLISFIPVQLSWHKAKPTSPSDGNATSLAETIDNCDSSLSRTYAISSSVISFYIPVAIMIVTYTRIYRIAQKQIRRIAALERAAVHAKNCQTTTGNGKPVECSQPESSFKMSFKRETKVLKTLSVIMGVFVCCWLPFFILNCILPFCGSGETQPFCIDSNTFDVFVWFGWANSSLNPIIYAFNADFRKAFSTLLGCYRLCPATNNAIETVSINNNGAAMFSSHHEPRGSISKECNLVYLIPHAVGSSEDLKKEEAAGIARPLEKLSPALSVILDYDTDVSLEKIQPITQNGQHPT

SERT = SERT (Homo sapiens, UniProt P31645); experiment: biochemical; format: binding; conditions: read-out: maximum inhibition
SERT, sequence (P31645 whole entry, species assumed): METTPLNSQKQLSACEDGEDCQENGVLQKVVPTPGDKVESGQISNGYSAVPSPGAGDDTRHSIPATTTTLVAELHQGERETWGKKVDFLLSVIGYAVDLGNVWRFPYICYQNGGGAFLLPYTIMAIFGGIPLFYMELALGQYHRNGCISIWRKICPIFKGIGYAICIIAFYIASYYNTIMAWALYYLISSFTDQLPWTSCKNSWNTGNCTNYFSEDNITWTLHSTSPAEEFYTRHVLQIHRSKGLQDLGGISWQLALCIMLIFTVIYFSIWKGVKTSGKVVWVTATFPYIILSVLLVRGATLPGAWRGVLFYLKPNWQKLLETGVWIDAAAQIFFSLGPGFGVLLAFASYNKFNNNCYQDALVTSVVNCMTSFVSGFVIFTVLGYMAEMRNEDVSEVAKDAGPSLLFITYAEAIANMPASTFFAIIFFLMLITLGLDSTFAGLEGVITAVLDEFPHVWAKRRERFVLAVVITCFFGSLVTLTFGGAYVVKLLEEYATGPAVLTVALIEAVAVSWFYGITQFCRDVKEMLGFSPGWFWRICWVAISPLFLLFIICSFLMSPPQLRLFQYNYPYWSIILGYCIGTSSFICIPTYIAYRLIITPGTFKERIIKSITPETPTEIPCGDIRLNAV

D2 = D2 (Homo sapiens, UniProt P14416); experiment: Receptor binding, D2; conditions: @ 100 nM; read-out: maximum inhibition
D2, sequence (P14416 1-414 isoform P14416-2): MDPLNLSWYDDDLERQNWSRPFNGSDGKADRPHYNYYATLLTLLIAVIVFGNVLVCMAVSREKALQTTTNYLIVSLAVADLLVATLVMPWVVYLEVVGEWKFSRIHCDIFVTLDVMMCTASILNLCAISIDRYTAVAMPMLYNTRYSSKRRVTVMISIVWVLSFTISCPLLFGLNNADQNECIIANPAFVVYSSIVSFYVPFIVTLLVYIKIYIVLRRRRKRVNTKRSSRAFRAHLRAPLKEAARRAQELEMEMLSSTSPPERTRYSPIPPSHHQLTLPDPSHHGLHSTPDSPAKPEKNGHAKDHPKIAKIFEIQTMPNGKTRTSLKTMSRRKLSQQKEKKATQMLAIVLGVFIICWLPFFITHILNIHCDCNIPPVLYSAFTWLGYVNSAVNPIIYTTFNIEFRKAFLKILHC

5-HT2A = 5-HT2A (Homo sapiens, UniProt P28223); experiment: biochemical; format: binding; conditions: read-out: maximum inhibition
5-HT2A, sequence (P28223 whole entry): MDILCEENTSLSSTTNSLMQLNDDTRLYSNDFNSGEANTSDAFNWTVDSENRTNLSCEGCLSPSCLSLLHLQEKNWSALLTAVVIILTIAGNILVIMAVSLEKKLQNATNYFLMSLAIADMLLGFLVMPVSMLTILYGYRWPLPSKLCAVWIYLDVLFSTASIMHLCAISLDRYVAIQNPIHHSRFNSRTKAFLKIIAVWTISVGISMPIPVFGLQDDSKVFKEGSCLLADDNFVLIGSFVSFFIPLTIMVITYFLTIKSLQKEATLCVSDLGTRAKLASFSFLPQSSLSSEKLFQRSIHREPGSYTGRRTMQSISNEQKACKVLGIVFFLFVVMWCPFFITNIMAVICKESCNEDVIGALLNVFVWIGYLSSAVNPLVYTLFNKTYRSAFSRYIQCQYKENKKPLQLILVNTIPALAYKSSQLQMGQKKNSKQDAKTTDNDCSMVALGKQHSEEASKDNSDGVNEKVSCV

male C57BL/6J mice = conditions: mouse, in vivo

In the case of `O=C1CN2c3c(cccc3[C@@H]3CN(CCCOc4ccc(F)cc4)CC[C@@H]32)N1` [Example 1, (6bR,10aS)-8-(3-(4-fluorophenoxy)propyl)-6b,7,8,9,10,10a-hexahydro-1H-pyrido[3′,4′:4,5]pyrrolo[1,2,3-de]quinoxalin-2(3H)-one], the “Marbles Buried” value (mice) is reported as 9.3, the “effect on gastrointestinal motility” value (rats [1]; at a dose up to 3 mg/kg) is reported as “no significant effect” and the “effect on NR2B phosphorylation at Tyr1472” value [2] is reported as “no significant effect”. For the same compound, the “effect on tyrosine hydroxylase phosphorylation at Ser40” value ([3]; 3 mg/kg, at 30 minutes or 60 minutes) was “no significant effect”, the “physical dependence upon cessation of dosing” value (male Sprague-Dawley rats; 0.3 and 3 mg/kg) was “not to produce a syndrome of physical dependence” and the “tolerance during subcutaneous dosing for 28 days” value (male Sprague-Dawley rats; 0.3 and 3 mg/kg four times) was “does not produce tolerance”. The “effect on animal body weight, food and water intake or body temperature” value (male Sprague-Dawley rats; 0.3 and 3 mg/kg s.c. four times per day, on-dose or withdrawal phase) was “no significant effect”, the “main behavioral and physical signs” value (male Sprague-Dawley rats; higher dose (3 mg/kg)) was “hunched posture, subdued behavior, Straub tail, tail rattle and piloerection” and the “predominant behavioral and physical effects, dosing phase” value (male Sprague-Dawley rats; repeated administration at 0.3 mg/kg) was “hunched posture, Straub tail and piloerection”. The “Mean Behavior Rating (0-4)” value (C57 mice; po, 3 mg/kg) was 0.9 and 0.8 and 1.5, the “Mean Behavior Rating (0-4)” value (C57 mice; sc, 1 mg/kg) was 1.0 and 1.9 and 1.1 and the peak plasma concentrations [4] was 15 to 38 ng/mL. It also gave an RR (rats [5]; 0.3 mg/kg SC) of 181 breaths/min, an RR (rats [5]; 1.0 mg/kg SC) of 203 breaths/min and an RR (rats [5]; 3.0 mg/kg SC) of 190 breaths/min. For the same compound, the “respiratory rate, tidal volume and minute volume vs vehicle” value (rats [5]; 0.3, 1.0 and 3.0 mg/kg SC, 0, 15, 60, 120, 240 minutes) was “no significant differences”, the Bioavailability ([6]; iv, 1 mg/kg) was 100% and the t-1/2 ([6]; po, 10 mg/kg) was 3.1 h. It also gave a t-1/2 ([6]; sc, 3 mg/kg) of 9.5 h.

In the case of `O=C1CN2c3c(cccc3[C@@H]3CN(CCCc4n[nH]c5cc(F)ccc45)CC[C@@H]32)N1` [Example 2, (6bR,10aS)-8-(3-(6-fluoro-1H-indazol-3-yl)propyl)-6b,7,8,9,10,10a-hexahydro-1H-pyrido[3′,4′:4,5]pyrrolo[1,2,3-de]quinoxalin-2(3H)-one], the “Motility Ratio” value (rats [1]; 0.3 mg/kg SC) is reported as 0.50, the “Motility Ratio” value (rats [1]; 1 mg/kg SC) is reported as 0.55 and the “Motility Ratio” value (rats [1]; 3 mg/kg SC) is reported as 0.50.

For `O=C1CN2c3c(cccc3[C@@H]3CN(CCCOc4cccc(F)c4)CC[C@@H]32)N1` [Example 20, (6bR,10aS)-8-(3-(3-fluorophenoxy)propyl)-6b,7,8,9,10,10a-hexahydro-1H-pyrido[3′,4′:4,5]pyrrolo[1,2,3-de]quinoxalin-2(3H)-one], the inhibition at 0.1 µM (D1) was 32%, the inhibition at 0.2 µM (SERT) was 8% and the inhibition at 0.1 µM (D2) was 14%. It also gave an inhibition at 0.1 µM (5-HT2A) of 79%.

For `O=C1CN2c3c(cccc3[C@@H]3CN(CCCOc4ccccc4F)CC[C@@H]32)N1` [Example 21, (6bR,10aS)-8-(3-(2-fluorophenoxy)propyl)-6b,7,8,9,10,10a-hexahydro-1H-pyrido[3′,4′:4,5]pyrrolo[1,2,3-de]quinoxalin-2(3H)-one], the inhibition at 0.1 µM (D1) was 18%, the inhibition at 0.2 µM (SERT) was 5% and the inhibition at 0.1 µM (D2) was 28%. It also gave an inhibition at 0.1 µM (5-HT2A) of 88%.

With `CC(C)N1C(=O)CN2c3c(cccc31)[C@@H]1CN(CCCOc3ccc(F)cc3)CC[C@@H]12` [Example 22, (6bR,10aS)-8-(3-(4-fluorophenoxy)propyl)-3-isopropyl-6b,7,8,9,10,10a-hexa-hydro-1H-pyrido[3′,4′:4,5]pyrrolo[1,2,3-de]quinoxalin-2(3H)-one] the inhibition at 0.1 µM (D1) was 70%, the inhibition at 0.2 µM (SERT) was 11% and the inhibition at 0.1 µM (D2) was 39%. For the same compound, the inhibition at 0.1 µM (5-HT2A) was 81%.

In the case of `O=C1CN2c3c(cccc3[C@@H]3CN(CCCOc4ccc(I)cc4)CC[C@@H]32)N1` [Example 23, (6bR,10aS)-8-(3-(4-iodophenoxy)propyl)-6b,7,8,9,10,10a-hexahydro-1H-pyrido[3′,4′:4,5]pyrrolo[1,2,3-de]quinoxalin-2(3H)-one], the inhibition at 0.1 µM (D1) is reported as 3%, the inhibition at 0.2 µM (SERT) is reported as 48% and the inhibition at 0.1 µM (D2) is reported as 14%. It also gave an inhibition at 0.1 µM (5-HT2A) of 81%.

`O=C1CN2c3c(cccc3[C@@H]3CN(CCCOc4ccc(Br)cc4)CC[C@@H]32)N1` [Example 24, (6bR,10aS)-8-(3-(4-bromophenoxy)propyl)-6b,7,8,9,10,10a-hexahydro-1H-pyrido[3′,4′:4,5]pyrrolo[1,2,3-de]quinoxalin-2(3H)-one] showed an inhibition at 0.1 µM (D1) of 3%, an inhibition at 0.2 µM (SERT) of 44% and an inhibition at 0.1 µM (D2) of 8%. The inhibition at 0.1 µM (5-HT2A) was 72%.

With `Cc1ccc(OCCCN2CC[C@H]3[C@@H](C2)c2cccc4c2N3CC(=O)N4)cc1` [Example 25, (6bR,10aS)-8-(3-(p-tolyloxy)propyl)-6b,7,8,9,10,10a-hexahydro-1H-pyrido-[3′,4′:4,5]pyrrolo[1,2,3-de]quinoxalin-2(3H)-one] the inhibition at 0.1 µM (D1) was 14%, the inhibition at 0.2 µM (SERT) was 10% and the inhibition at 0.1 µM (D2) was 21%. The inhibition at 0.1 µM (5-HT2A) was 62%.

In the case of `CN1CC[C@]23c4c5ccc(O)c4O[C@H]2[C@@H](O)C=C[C@H]3[C@H]1C5` [Morphine, morphine, reference compound], the “reduction in gastric motility” value (rats [1]; 5 mg/kg SC) is reported as about 50%.

In the case of `C=CCN1CC[C@]23c4c5ccc(O)c4O[C@H]2C(=O)CC[C@@]3(O)[C@H]1C5` [Naloxone, naloxone], the “Body Weight Loss” value (male C57BL/6J mice) is reported as 0.5%, the Jumps (male C57BL/6J mice) is reported as 0 and the “Paw Tremors” value (male C57BL/6J mice) is reported as 0.87. The “Total Number of Signs” value (male C57BL/6J mice) was 2.2.

With `O=C(CCCN1CCC(O)(c2ccc(Cl)cc2)CC1)c1ccc(F)cc1` [haloperidol] the “increase in TH phosphorylation” value [3] was “greater than 400%”.

In the case of `Cc1nc2n(c(=O)c1CCN1CCC(c3noc4cc(F)ccc34)CC1)CCCC2` [risperidone], the “increase in TH phosphorylation” value [3] is reported as “greater than 500%”.
